Assay results published in PMC6843786, “Temporin-SHa and Its Analogs as Potential Candidates for the Treatment of Helicobacter pylori” (Biomolecules, 2019).
Where two headings read alike, the source gives them in different places. Each block holds one molecule with its values, some of them ahead of it. Non-standard residues stand in square brackets, D forms with d. Residues, ends and D or L forms follow the SMILES beside them.

Tests used:
H. pylori (ATCC 43504) [1] = test: MIC after digestion by pepsin (resistance to pepsin); settings: ATCC 43504, 4 h, pH 2
Protocol: (§1) Briefly, after the growth of H. pylori in liquid culture the optical density (OD) of the bacterial suspensions were read at 600 nm and adjusted to one. Stock solutions of the peptides at 1 mM were prepared in sterile water. Bacteria were diluted in medium to reach bacterial density around 10^5 bacteria/mL. One-hundred microliters per well of bacterial suspension were then added into sterile polypropylene 96-well microplates (Greiner BioOne, Paris, France) and exposed to increasing concentrations of peptides (from zero to 100 µM, 1:2 serial dilution). […] Plates were incubated at 37 °C for 24 h for H. pylori (ATCC 43504) and for 4–7 days for the clinical strains. H. pylori was tested in microaerophilic conditions generated using micro-anaerobic BD GasPak system. At the end of the incubation, OD600nm was measured using microplate reader (Synergy Mx, Biotek, Colmar, France). The MIC was defined as the lowest concentration of drug that inhibited visible growth of the organism. Experiments were conducted in independent triplicate (n = 3).
(§2) It is also rich with mucus to protect it from the aggressive acidity. For this reason, the impact of mucins and pepsin on the activity of the peptides was investigated. The impact of the gastric mucins on peptide activity was evaluated using a combination of commercial porcine stomach mucins MUC2 and MUC3 (Sigma–Aldrich) at a final concentration of 1 mg/mL sterilized using 0.2 µm filter. This concentration was used based on the estimated concentration of mucins present in the mucus in vivo [27]. The effect of mucins on peptides activity was evaluated by MIC and by time killing assay as explained below. The resistance of the peptides to pepsin was tested as previously described with some changes. […] This concentration was used since it corresponds the pepsin concentration in the stomach (0.5–1 mg/mL).

N87 cells = test: In vitro toxicity assay using human gastric cells (resazurin); assay type: cell-based; settings: for IC50: 48 h
Protocol: [26] Human gastric cells N87 (ATCC CRL-5822) were cultured in RPMI-1640 medium supplemented with 10% fetal calf serum (FCS), 1% L-glutamine and 1% antibiotics (all from Invitrogen, Carlsbad, CA, USA) and were routinely seeded onto 25 cm^2 flasks maintained in a 5% CO2 incubator at 37 °C. For the toxicity assay, cells grown on 25 cm^2 flasks were detached using trypsin–EDTA solution (from Thermofisher), counted using Mallasez counting chamber and seeded into 96-well cell culture plates (Greiner Bio-one) at approximately 10^4 cells per well. The cells were left to grow for 48–72 h at 37 °C in a 5% CO2 incubator until they reached confluence. Plates were then aspirated and increasing concentrations of peptides were added to the cells for 48 h at 37 °C in a 5% CO2 incubator, volume of water corresponding to the volume of peptides being used as negative control. At the end of the incubation, wells were aspirated, and cell viability was evaluated using resazurin-based in vitro toxicity assay kit (Sigma-Aldrich) following manufacturer’s instructions. Briefly, resazurin stock solution was diluted 1:10 in sterile PBS containing calcium and magnesium (PBS^++, pH 7.4) and empty wells were filled with 100 µL of the diluted solution. After 4 h incubation at 37 °C, fluorescence intensity was measured using microplate reader (Synergy Mx, Biotek) with an excitation wavelength of 530 nm and an emission wavelength of 590 nm. The fluorescence values were normalized by the controls and expressed as percent viability.

H. pylori (ATCC 43504) [2] = test system: H. pylori (ATCC 43504)
Protocol: as §1, §2

H. pylori (ATCC 43504) [3] = settings: ATCC 43504, 24 h
From the text: H. pylori used in this study were either the reference strain obtained from the American Type Culture Collection (ATCC 43504) or clinical strains received frozen from our collaborator Josette Raymond from Hospital Cochin, Paris. Strains were obtained from patients who underwent a gastroendoscopy performed for various gastro-intestinal disorders according to the recommendations of Haute Autorité de Santé (HAS). During the endoscopy, biopsy samples were taken from antrum and corpus. Samples were then crushed, and the material was used for bacterial culture and molecular methods. An antibiogram was performed and strains were then frozen at -80 °C in a broth with 10% glycerol. Bacteria were cultured as previously described. Briefly, H. pylori (ATCC 43504) was cultured in brain heart infusion (BHI) and incubated at 37 °C for 16 h in microaerophilic condition in BD GasPak EZ using BD GasPak EZ CampyPak container system sachets (BD Biosciences, Le Pont-de-Claix, France). For clinical strains, a sample from the frozen bacteria was streaked on Blood Agar (Base) (Sigma-Aldrich, Illkirch-Graffenstaden, France) supplemented with 5% horse defibrinated blood (Fisher Scientific, Les Ulis, France) and 2% isovitale-X (Fisher Scientific, Illkirch-Graffenstaden, France). The petri dishes were then incubated at 37 °C for 4–7 days in microaerophilic condition. Then, a colony is transferred to 3 mL Mueller Hinton (MH) broth supplemented with 10% fetal bovine serum (FBS) and 2% isovitale-X. The cultures were then incubated for 4–7 days until the bacteria grow before further experiments.
as §1

[4] = test system: total lipids extracted from H. pylori (ATCC 43504); test: Lipid insertion assay (lipid monolayer, critical pressure of insertion); design: species or system biophysical; settings: peptide 1 µM, PBS pH 7.4, from the line fits of Figure 4
Protocol: Peptide-lipid interaction was measured using reconstituted lipid monolayer at the air-water interface as previously described. Total lipids were extracted from overnight cultures of H. pylori (ATCC 43504) using Folch extraction procedure as previously described. Extracted total lipids were dried, resolubilized in chloroform:methanol (2:1, v/v) and stored at -20 °C under nitrogen. For peptide-lipid interaction assay, total lipid extract was spread using a 50 μL Hamilton's syringe at the surface of 800 μL of sterile PBS creating a lipid monolayer at the air-water interface. Lipids were added until the surface pressure reached the desired value. […] The variation of the surface pressure caused by peptide injection was then continuously monitored using a fully automated microtensiometer (μTROUGH SX, Kibron Inc., Helsinki, Finland) until reaching equilibrium (maximal surface pressure increase being usually obtained after 15-25 min). […] Variation of surface pressure was plotted as a function of initial surface pressure and the critical pressure of insertion of each peptide into H. pylori lipids was calculated as the theoretical value of initial pressure of lipid monolayer not permissive to peptide insertion, i.e., giving a variation of pressure equal to 0 mN/m.

H. pylori (ATCC 43504) [5] = test system: H. pylori (ATCC 43504); remark: listed apart in the source
Protocol: The bactericidal activity of peptides was assessed using the time kill assay as previously described with some modifications. Briefly, overnight liquid culture of H. pylori (ATCC 43504) was prepared and an optical density measurement (OD600nm) was taken to provide an estimation of cell numbers in the culture. Bacterial suspension was then centrifuged at 3000 rpm for 5 min and the bacterial pellet was then resuspended in sterile PBS pH6 at approximatively 10^7 CFU/mL. The pH of PBS was changed from 7 to 6 with HCl to mimic the micro-environment surrounding H. pylori in the stomach. Indeed, although the lumen of the stomach is around 1–2, H. pylori is able, through the activity of its urease, to create a local micro-environment around it of pH 6 [31]. In addition to PBS pH 6, the time kill assay was also performed in PBS pH 6 containing a mixture of porcine stomach mucins MUC2 and MUC3 (at 1 mg/mL, final concentration) or in the presence of human gastric cells N87 producing human mucus. In that particular case, N87 cells were seeded onto 96-wells plates and left to grow for 48–72 h until they reached confluence. At that time, wells were aspirated and bacterial suspension in PBS pH 6 were added to the wells. In all cases, resuspended bacteria (200 µL) were treated with peptides or the conventional antibiotic amoxicillin at a final concentration corresponding to five times their MIC. Bacteria were then incubated in micro-aerobic conditions at 37 °C using GasPak units. […] The petri dishes were then incubated 16 h at 37 °C in microaerophilic conditions before counting of growing colonies. The number of surviving bacteria was calculated using the number of observed colonies and the dilution factor. The experiment was done in triplicate.

Structure (SMILES): CC[C@H](C)[C@H](NC(=O)[C@@H](C)NC(=O)[C@H](CO)NC(=O)[C@H](CC(C)C)NC(=O)[C@@H](N)Cc1ccccc1)C(=O)N[C@H](C(=O)NCC(=O)N[C@@H](CCSC)C(=O)N[C@@H](CC(C)C)C(=O)N[C@H](C)C(=O)N[C@@H](CCCCN)C(=O)N[C@@H](CC(C)C)C(=O)N[C@@H](Cc1ccccc1)C(N)=O)C(C)C [NST7, H-Phe^1-Leu^2-Ser^3-D-Ala^4-Ile^5-Val^6-Gly^7-Met^8-Leu^9-D-Ala^10-Lys^11-Leu^12-Phe^13-NH2] (H-FLS[dA]IVGML[dA]KLF-NH2)
increase in toxicity to human gastric cells compared to temporin-SHa (N87 cells): around 15 fold | IC50 (N87 cells): 84.7 ± 9 µM | critical pressure of insertion (CPI) [4]: 33 mN/m

Structure (SMILES): CC1(C)S[C@@H]2[C@H](NC(=O)[C@H](N)c3ccc(O)cc3)C(=O)N2[C@H]1C(=O)O [amoxicillin, reference compound]
killing (H. pylori (ATCC 43504) [5]; 20 min, PBS pH 6, 5-times MIC): 9% | killing (H. pylori (ATCC 43504) [5]; 3 h (180 min), PBS pH 6, 5-times MIC): 34% | killing (H. pylori (ATCC 43504) [5]; 3 h, absence or presence of mucus, 5-times MIC): 31.5–55% | killing (H. pylori (ATCC 43504) [5]; 9 h (540 min), 5-times MIC): 75%

Now from value to molecule, other results behind:

MIC after Digestion by Pepsin (H. pylori (ATCC 43504) [1]): >50 µM | MIC in the Presence of mucins (H. pylori (ATCC 43504) [2]; ATCC 43504, 24 h): 6.25 µM | increase of MIC in the presence of mucins (H. pylori (ATCC 43504) [2]; MUC2 and MUC3 at 1 mg/mL versus no mucins): two | MIC on H. pylori (ATCC 43504) (H. pylori (ATCC 43504) [3]): 3.12 µM
Structure (SMILES): CC[C@H](C)[C@H](NC(=O)CNC(=O)[C@H](CO)NC(=O)[C@H](CC(C)C)NC(=O)[C@@H](N)Cc1ccccc1)C(=O)N[C@H](C(=O)N[C@H](C)C(=O)N[C@@H](CCSC)C(=O)N[C@@H](CC(C)C)C(=O)NCC(=O)N[C@@H](CCCCN)C(=O)N[C@@H](CC(C)C)C(=O)N[C@@H](Cc1ccccc1)C(N)=O)C(C)C [NST3, H-Phe^1-Leu^2-Ser^3-Gly^4-Ile^5-Val^6-D-Ala^7-Met^8-Leu^9-Gly^10-Lys^11-Leu^12-Phe^13-NH2] (H-FLSGIV[dA]MLGKLF-NH2)
increase in toxicity to human gastric cells compared to temporin-SHa (N87 cells): around 3 fold | IC50 (N87 cells): 520 ± 148 µM | critical pressure of insertion (CPI) [4]: 35.73 mN/m

MIC on H. pylori (ATCC 43504) (H. pylori (ATCC 43504) [3]): 6.25 to 12.5 µM
Structure (SMILES): CC[C@H](C)[C@H](NC(=O)[C@@H](C)NC(=O)[C@H](CO)NC(=O)[C@H](CC(C)C)NC(=O)[C@@H](N)Cc1ccccc1)C(=O)N[C@H](C(=O)N[C@H](C)C(=O)N[C@@H](CCSC)C(=O)N[C@@H](CC(C)C)C(=O)NCC(=O)N[C@@H](CCCCN)C(=O)N[C@@H](CC(C)C)C(=O)N[C@@H](Cc1ccccc1)C(N)=O)C(C)C [NST4, H-Phe^1-Leu^2-Ser^3-D-Ala^4-Ile^5-Val^6-D-Ala^7-Met^8-Leu^9-Gly^10-Lys^11-Leu^12-Phe^13-NH2] (H-FLS[dA]IV[dA]MLGKLF-NH2)
increase in toxicity to human gastric cells compared to temporin-SHa (N87 cells): around 5 fold | IC50 (N87 cells): 306 ± 48.4 µM | critical pressure of insertion (CPI) [4]: 39.12 mN/m

MIC on H. pylori (ATCC 43504) (H. pylori (ATCC 43504) [3]): 3.12 µM
Structure (SMILES): CC[C@H](C)[C@H](NC(=O)CNC(=O)[C@H](CO)NC(=O)[C@H](CC(C)C)NC(=O)[C@@H](N)Cc1ccccc1)C(=O)N[C@H](C(=O)N[C@H](C)C(=O)N[C@@H](CCSC)C(=O)N[C@@H](CC(C)C)C(=O)N[C@H](C)C(=O)N[C@@H](CCCCN)C(=O)N[C@@H](CC(C)C)C(=O)N[C@@H](Cc1ccccc1)C(N)=O)C(C)C [NST6, H-Phe^1-Leu^2-Ser^3-Gly^4-Ile^5-Val^6-D-Ala^7-Met^8-Leu^9-D-Ala^10-Lys^11-Leu^12-Phe^13-NH2] (H-FLSGIV[dA]ML[dA]KLF-NH2)
increase in toxicity to human gastric cells compared to temporin-SHa (N87 cells): around 15 fold | IC50 (N87 cells): 104 ± 9.3 µM | critical pressure of insertion (CPI) [4]: 44.43 mN/m
